Data reported in patent US10597388B2, “Pyridazinone herbicides” (FMC CORPORATION, priority 2014, dated 2020).

Experiments:
Experiment in all cases: Test C greenhouse herbicide test, pre- and postemergence
Type in all cases: in vivo
soybean (Glycine max) = system: soybean (Glycine max)
Procedure, shortened: (§1)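 Visual 0–100 injury score (100 = complete control) taken against untreated controls after 13–15 d in greenhouse. Test chemicals, formulated in solvent plus surfactant, applied preemergence to seeds in loam–sand soil or postemergence to 1- to 4-leaf plants (2–18 cm).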

[1] = system: ryegrass, Italian (Italian ryegrass, Lolium multiflorum)
Procedure, shortened: as §1

[2] = system: waterhemp (common waterhemp, Amaranthus rudis)
Procedure, shortened: as §1

[3] = system: galium (catchweed bedstraw, Galium aparine)
Procedure, shortened: as §1

corn (Zea mays) = system: corn (Zea mays)
Procedure, shortened: as §1

[4] = system: wheat (winter wheat, Triticum aestivum)
Procedure, shortened: as §1

[5] = system: barnyardgrass (Echinochloa crus-galli)
Procedure, shortened: as §1

[6] = system: foxtail, giant (giant foxtail, Setaria faberii)
Procedure, shortened: as §1

[7] = system: pigweed (Amaranthus retroflexus)
Procedure, shortened: as §1

[8] = system: lambsquarters (Chenopodium album)
Procedure, shortened: as §1

[9] = system: crabgrass, large (large crabgrass, Digitaria sanguinalis)
Procedure, shortened: as §1

[10] = system: nutsedge, yellow (yellow nutsedge, Cyperus esculentus)
Procedure, shortened: as §1

[11] = system: blackgrass (Alopecurus myosuroides)
Procedure, shortened: as §1

[12] = system: morningglory (Ipomoea coccinea)
Procedure, shortened: as §1

[13] = system: velvetleaf (Abutilon theophrasti)
Procedure, shortened: as §1

[14] = Postemergence, 31 g ai/ha, scale 0 to 100 (0 no effect, 100 complete control)
[15] = Postemergence, 125 g ai/ha, scale 0 to 100, 0 is no effect, 100 is complete control
[16] = Postemergence, 250 g ai/ha, scale 0 to 100, 0 no effect, 100 complete control, 13 to 15 d
[17] = Preemergence, 31 g ai/ha, scale 0 to 100, 0 is no effect, 100 is complete control
[18] = Preemergence, 62 g ai/ha, scale 0 to 100, 0 is no effect, 100 is complete control
[19] = Preemergence, 125 g ai/ha, scale 0 to 100, 0 is no effect, 100 is complete control
[20] = Preemergence, 250 g ai/ha, scale 0 to 100, 0 no effect, 100 complete control
[21] = postemergence, 62 g ai/ha, scale 0 to 100, 0 no effect, 100 complete control

Structure (SMILES): Cc1ccc2ccccc2c1-c1c(O)c(C(F)(F)F)nn(C)c1=O [Compound 102]
- Plant response rating, Soybean (soybean (Glycine max); [14]): 0
- Plant response rating, Soybean (soybean (Glycine max); [15]): 10
- Plant response rating, Soybean (soybean (Glycine max); [16]): 10
- Plant response rating, Soybean (soybean (Glycine max); [17]): 0
- Plant response rating, Soybean (soybean (Glycine max); [18]): 5
- Plant response rating, Soybean (soybean (Glycine max); [19]): 5
- Soybean plant response rating (soybean (Glycine max); [20]): 5
- Plant response rating, Ryegrass, Italian [1, 14]: 0
- Plant response rating, Ryegrass, Italian [1, 15]: 25
- Plant response rating, Ryegrass, Italian [1, 16]: 30
- Plant response rating, Ryegrass, Italian [1, 17]: 15
- Plant response rating, Ryegrass, Italian [1, 18]: 25
- Plant response rating, Ryegrass, Italian [1, 19]: 50
- Ryegrass, Italian plant response rating [1, 20]: 70
- Plant response rating, Waterhemp [2, 14]: 25
- Plant response rating, Waterhemp [2, 15]: 80
- Plant response rating, Waterhemp [2, 16]: 85
- Plant response rating, Waterhemp [2, 17]: 75
- Plant response rating, Waterhemp [2, 18]: 65
- Plant response rating, Waterhemp [2, 19]: 75
- Waterhemp plant response rating [2, 20]: 85
- Plant response rating, Galium [3, 14]: 90
- Plant response rating, Galium [3, 15]: 95
- Plant response rating, Galium [3, 16]: 95
- Plant response rating, Galium [3, 19]: 95
- Galium plant response rating [3, 20]: 95
- Plant response rating, Corn (corn (Zea mays); [14]): 0
- Plant response rating, Corn (corn (Zea mays); [15]): 10
- Plant response rating, Corn (corn (Zea mays); [16]): 10
- Plant response rating, Corn (corn (Zea mays); [17]): 5
- Plant response rating, Corn (corn (Zea mays); [18]): 10
- Plant response rating, Corn (corn (Zea mays); [19]): 20
- Corn plant response rating (corn (Zea mays); [20]): 30
- Corn plant response rating (corn (Zea mays); [21]): 0
- Plant response rating, Wheat [4, 14]: 0
- Plant response rating, Wheat [4, 15]: 5
- Plant response rating, Wheat [4, 16]: 5
- Plant response rating, Wheat [4, 17]: 0
- Plant response rating, Wheat [4, 18]: 5
- Wheat plant response rating [4, 20]: 25
- Plant response rating, Barnyardgrass [5, 14]: 20
- Plant response rating, Barnyardgrass [5, 15]: 35
- Plant response rating, Barnyardgrass [5, 16]: 40
- Plant response rating, Barnyardgrass [5, 17]: 5
- Plant response rating, Barnyardgrass [5, 18]: 10
- Plant response rating, Barnyardgrass [5, 19]: 30
- Barnyardgrass plant response rating [5, 20]: 85
- Barnyardgrass plant response rating [5, 21]: 20
- Plant response rating, Foxtail, Giant [6, 14]: 20
- Plant response rating, Foxtail, Giant [6, 15]: 60
- Plant response rating, Foxtail, Giant [6, 16]: 75
- Plant response rating, Foxtail, Giant [6, 17]: 30
- Plant response rating, Foxtail, Giant [6, 18]: 75
- Plant response rating, Foxtail, Giant [6, 19]: 85
- Foxtail, Giant plant response rating [6, 20]: 90
- Plant response rating, Pigweed [7, 14]: 75
- Plant response rating, Pigweed [7, 15]: 95
- Plant response rating, Pigweed [7, 16]: 100
- Plant response rating, Pigweed [7, 17]: 75
- Plant response rating, Pigweed [7, 18]: 85
- Plant response rating, Pigweed [7, 19]: 98
- Pigweed plant response rating [7, 20]: 100
- Plant response rating, Lambsquarters [8, 14]: 75
- Plant response rating, Lambsquarters [8, 15]: 70
- Plant response rating, Lambsquarters [8, 16]: 100
- Plant response rating, Lambsquarters [8, 17]: 70
- Plant response rating, Lambsquarters [8, 18]: 85
- Plant response rating, Lambsquarters [8, 19]: 85
- Lambsquarters plant response rating [8, 20]: 100
- Plant response rating, Crabgrass, Large [9, 14]: 5
- Plant response rating, Crabgrass, Large [9, 15]: 20
- Plant response rating, Crabgrass, Large [9, 16]: 15
- Plant response rating, Crabgrass, Large [9, 17]: 0
- Plant response rating, Crabgrass, Large [9, 18]: 5
- Plant response rating, Crabgrass, Large [9, 19]: 30
- Crabgrass, Large plant response rating [9, 20]: 55
- Crabgrass, Large plant response rating [9, 21]: 10
- Plant response rating, Nutsedge, Yellow [10, 14]: 20
- Plant response rating, Nutsedge, Yellow [10, 15]: 60
- Plant response rating, Nutsedge, Yellow [10, 16]: 75
- Plant response rating, Nutsedge, Yellow [10, 17]: 15
- Plant response rating, Nutsedge, Yellow [10, 18]: 70
- Plant response rating, Nutsedge, Yellow [10, 19]: 75
- Nutsedge, Yellow plant response rating [10, 20]: 75
- Plant response rating, Blackgrass [11, 14]: 0
- Plant response rating, Blackgrass [11, 15]: 5
- Plant response rating, Blackgrass [11, 16]: 10
- Plant response rating, Blackgrass [11, 17]: 0
- Plant response rating, Blackgrass [11, 18]: 50
- Plant response rating, Blackgrass [11, 19]: 45
- Blackgrass plant response rating [11, 20]: 70
- Blackgrass plant response rating [11, 21]: 5
- Plant response rating, Morningglory [12, 14]: 100
- Plant response rating, Morningglory [12, 15]: 100
- Plant response rating, Morningglory [12, 16]: 100
- Plant response rating, Morningglory [12, 17]: 45
- Plant response rating, Morningglory [12, 18]: 75
- Plant response rating, Morningglory [12, 19]: 85
- Morningglory plant response rating [12, 20]: 98
- Plant response rating, Velvetleaf [13, 14]: 30
- Plant response rating, Velvetleaf [13, 15]: 100
- Plant response rating, Velvetleaf [13, 16]: 100
- Plant response rating, Velvetleaf [13, 17]: 65
- Plant response rating, Velvetleaf [13, 18]: 85
- Plant response rating, Velvetleaf [13, 19]: 85
- Velvetleaf plant response rating [13, 20]: 100
